≈ marks a conversion by molar mass, not a printed value. Where two headings read alike, the source gives them in different places.
Key:
Mtb [1] = assay: microbe, parasite or virus in culture; assay type: cell-based, Mycobacterium tuberculosis; settings: Mycobacterium tuberculosis, read-out: MIC (I)
Mtb [2] = assay: microbe, parasite or virus in culture; assay type: cell-based, Mycobacterium tuberculosis; settings: Mycobacterium tuberculosis, read-out: MIC (III)
in vitro = settings: African green monkey

Molecule `COCCOC(=O)NC(=O)c1ccsc1NC(=O)c1nc2ccccc2s1` [Compound 18] has an MIC (Mtb [1]) of less than 1 µg/mL, an MIC (Mtb [2]) greater than 25 µg/mL and a CC50 (in vitro) greater than 50 µg/mL.

`CC(C)(C)C(=O)Nc1cc(C(=O)Nc2sccc2C(=O)NC(=O)OCCF)ccn1` [Compound 29] showed an MIC (Mtb [1]) of less than 1 µg/mL, an MIC (Mtb [2]) greater than 25 µg/mL and a CC50 (in vitro) of 25 to 50 µg/mL (≈ 57.3 to 115 µM).

In the case of `CC(C)(C)C(=O)Nc1cc(C(=O)Nc2sccc2C(=O)NC(=O)OCCN2CCOCC2)ccn1` [Compound 32], the MIC (Mtb [1]) is reported as greater than 3 µg/mL, the MIC (Mtb [2]) is reported as greater than 25 µg/mL and the CC50 (in vitro) is reported as greater than 50 µg/mL.

With `CCOC(=O)NC(=O)c1ccsc1NC(=O)c1ccnc(NC(=O)N2CCOCC2)c1` [Compound 33] the MIC (Mtb [1]) was less than 1 µg/mL, the MIC (Mtb [2]) was greater than 25 µg/mL and the CC50 (in vitro) was greater than 50 µg/mL.

Work on `CC(CN1CCOCC1)OC(=O)NC(=O)c1ccsc1NC(=O)c1nc2ccccc2s1` (stereo not drawn) [Compound 34] yielded an MIC (Mtb [1]) greater than 3 µg/mL, an MIC (Mtb [2]) of 5 to 25 µg/mL (≈ 10.5 to 52.7 µM) and a CC50 (in vitro) of less than 25 µg/mL.

`O=C(NC(=O)c1ccsc1NC(=O)c1nc2ccccc2s1)OC1COC1` [Compound 35] gave an MIC (Mtb [1]) of less than 1 µg/mL, an MIC (Mtb [2]) greater than 25 µg/mL and a CC50 (in vitro) of less than 25 µg/mL.

`CCOC(=O)NC(=O)c1ccsc1NC(=O)c1cc(NC(=O)C(C)(C)C)ncn1` [Compound 36] gave an MIC (Mtb [1]) of 1 to 3 µg/mL (≈ 2.38 to 7.15 µM), an MIC (Mtb [2]) greater than 25 µg/mL and a CC50 (in vitro) greater than 50 µg/mL.

For `O=C(NC(=O)c1ccsc1NC(=O)c1nc2ccccc2s1)OCCF` [Compound 37], the MIC (Mtb [1]) was less than 1 µg/mL, the MIC (Mtb [2]) was greater than 25 µg/mL and the CC50 (in vitro) was greater than 50 µg/mL.

For `CC(C)OC(=O)NC(=O)c1ccsc1NC(=O)c1nc2ccccc2s1` [Compound 41], the MIC (Mtb [1]) was less than 1 µg/mL, the MIC (Mtb [2]) was greater than 25 µg/mL and the CC50 (in vitro) was less than 25 µg/mL.

With `CCOC(=O)NC(=O)c1ccsc1NC(=O)c1ccc2scnc2c1` [Compound 43] the MIC (Mtb [1]) was less than 1 µg/mL, the MIC (Mtb [2]) was 5 to 25 µg/mL (≈ 13.3 to 66.6 µM) and the CC50 (in vitro) was greater than 50 µg/mL.

Molecule `CCOC(=O)NC(=O)c1ccsc1NC(=O)c1ccnc(NC(=O)CN2CCOCC2)c1` [Compound 46] has an MIC (Mtb [1]) of less than 1 µg/mL, an MIC (Mtb [2]) greater than 25 µg/mL and a CC50 (in vitro) greater than 50 µg/mL.

Work on `CCOC(=O)NC(=O)c1ccsc1NC(=O)c1ccnc(NC(=O)N2CCS(=O)(=O)CC2)c1` [Compound 47] yielded an MIC (Mtb [1]) of less than 1 µg/mL, an MIC (Mtb [2]) greater than 25 µg/mL and a CC50 (in vitro) greater than 50 µg/mL.

`O=C(NC(=O)c1ccsc1NC(=O)c1ccnc(NC(=O)N2CCOCC2)c1)OCCF` [Compound 48] gave an MIC (Mtb [1]) of less than 1 µg/mL, an MIC (Mtb [2]) greater than 25 µg/mL and a CC50 (in vitro) greater than 50 µg/mL.

In the case of `CCOC(=O)NC(=O)c1ccsc1NC(=O)c1ccnc(NC(=O)N2CCN(C)CC2)c1.Cl.Cl` [Compound 49], the MIC (Mtb [1]) is reported as 1 to 3 µg/mL, the MIC (Mtb [2]) is reported as greater than 25 µg/mL and the CC50 (in vitro) is reported as greater than 50 µg/mL.

For `CCOC(=O)NC(=O)c1ccsc1NC(=O)c1ccnc(NC(=O)N2CCC(F)(F)CC2)c1` [Compound 50], the MIC (Mtb [1]) was less than 1 µg/mL, the MIC (Mtb [2]) was greater than 25 µg/mL and the CC50 (in vitro) was 25 to 50 µg/mL (≈ 51.9 to 104 µM).

Work on `CCOC(=O)NC(=O)c1ccsc1NC(=O)c1ccnc(NC(=O)N2CCCCC2)c1` [Compound 51] yielded an MIC (Mtb [1]) of less than 1 µg/mL, an MIC (Mtb [2]) greater than 25 µg/mL and a CC50 (in vitro) of 25 to 50 µg/mL (≈ 56.1 to 112 µM).

With `CCOC(=O)NC(=O)c1ccsc1NC(=O)c1ccc2sc(N3CCOCC3)nc2c1` [Compound 58] the MIC (Mtb [1]) was less than 1 µg/mL, the MIC (Mtb [2]) was 5 to 25 µg/mL (≈ 10.9 to 54.3 µM) and the CC50 (in vitro) was greater than 50 µg/mL.

`CCOC(=O)NC(=O)c1ccsc1NC(=O)c1ccc2sc(N3CCN(C)CC3)nc2c1` [Compound 59] gave an MIC (Mtb [1]) of less than 1 µg/mL, an MIC (Mtb [2]) of 5 to 25 µg/mL (≈ 10.6 to 52.8 µM) and a CC50 (in vitro) greater than 50 µg/mL.

Molecule `CCOC(=O)NC(=O)c1cc(C)sc1NC(=O)c1ccc2scnc2c1` [Compound 62] has an MIC (Mtb [1]) of 1 to 3 µg/mL (≈ 2.57 to 7.7 µM), an MIC (Mtb [2]) greater than 25 µg/mL and a CC50 (in vitro) of 25 to 50 µg/mL (≈ 64.2 to 128 µM).

For `CCOC(=O)NC(=O)c1ccsc1NC(=O)c1ccc2cccnc2c1` [Compound 63], the MIC (Mtb [1]) was less than 1 µg/mL, the MIC (Mtb [2]) was 5 to 25 µg/mL (≈ 13.5 to 67.7 µM) and the CC50 (in vitro) was greater than 50 µg/mL.

For `CCOC(=O)NC(=O)c1ccsc1NC(=O)C1=NNC(=O)CC1` [Compound 64], the MIC (Mtb [1]) was less than 1 µg/mL, the MIC (Mtb [2]) was less than 5 µg/mL and the CC50 (in vitro) was greater than 50 µg/mL.

With `CCOC(=O)NC(=O)c1ccsc1NC(=O)c1cnc2cc(C)nn2c1C` [Compound 65] the MIC (Mtb [1]) was less than 1 µg/mL, the MIC (Mtb [2]) was less than 5 µg/mL and the CC50 (in vitro) was greater than 50 µg/mL.

`CCOC(=O)NC(=O)c1ccsc1NC(=O)C1=Cc2cccc(OC)c2OC1` [Compound 66] showed an MIC (Mtb [1]) of less than 1 µg/mL, an MIC (Mtb [2]) of less than 5 µg/mL and a CC50 (in vitro) greater than 50 µg/mL.

In the case of `CCOC(=O)NC(=O)c1ccsc1NC(=O)C1=Cc2ccccc2OC1` [Compound 67], the MIC (Mtb [1]) is reported as less than 1 µg/mL, the MIC (Mtb [2]) is reported as less than 5 µg/mL and the CC50 (in vitro) is reported as greater than 50 µg/mL.

`CCOC(=O)NC(=O)c1ccsc1NC(=O)C1=Cc2cc(OC)ccc2OC1` [Compound 68] gave an MIC (Mtb [1]) of less than 1 µg/mL, an MIC (Mtb [2]) of less than 5 µg/mL and a CC50 (in vitro) greater than 50 µg/mL.

With `CCOC(=O)NC(=O)c1ccsc1NC(=O)c1ccc2cccnc2n1` [Compound 69] the MIC (Mtb [1]) was less than 1 µg/mL, the MIC (Mtb [2]) was less than 5 µg/mL and the CC50 (in vitro) was less than 25 µg/mL.

For `CCOC(=O)NC(=O)c1ccsc1NC(=O)C1COc2cc(OC)ccc2C1` (stereo not drawn) [Compound 70], the MIC (Mtb [1]) was greater than 3 µg/mL, the MIC (Mtb [2]) was greater than 25 µg/mL and the CC50 (in vitro) was greater than 50 µg/mL.

`CCOC(=O)NC(=O)c1ccsc1NC(=O)C1COc2ccc(OC)cc2C1` (stereo not drawn) [Compound 71] gave an MIC (Mtb [1]) of 1 to 3 µg/mL (≈ 2.47 to 7.42 µM), an MIC (Mtb [2]) of less than 5 µg/mL and a CC50 (in vitro) greater than 50 µg/mL.

In the case of `CCOC(=O)NC(=O)c1ccsc1NC(=O)c1ccc2nccn2c1` [Compound 73], the MIC (Mtb [1]) is reported as 1 to 3 µg/mL (≈ 2.79 to 8.37 µM), the MIC (Mtb [2]) is reported as greater than 25 µg/mL and the CC50 (in vitro) is reported as greater than 50 µg/mL.

Work on `CCOC(=O)NC(=O)c1ccsc1NC(=O)c1noc(C)n1` [Compound 74] yielded an MIC (Mtb [1]) greater than 3 µg/mL, an MIC (Mtb [2]) greater than 25 µg/mL and a CC50 (in vitro) of 25 to 50 µg/mL (≈ 77.1 to 154 µM).

For `CCOC(=O)NC(=O)c1ccsc1NC(=O)c1ccc2ncoc2c1` [Compound 75], the MIC (Mtb [1]) was greater than 3 µg/mL, the MIC (Mtb [2]) was greater than 25 µg/mL and the CC50 (in vitro) was greater than 50 µg/mL.
